Among the data in patent US9388136B2, “Tert-butyl N-[2-{4-[6-amino-5-(2,4-difluorobenzoyl)-2-oxopyridin-1(2H)-yl]-3,5-difluorophenyl}ethyl]-L-alaninate or a salt, hydrate or solvate thereof” (Chroma Therapeutics Ltd., priority 2012, dated 2016) are IC50 values, retold here.

Read-outs that look alike come from different tables or passages of the source.

The subject of one assay is THP-1 cells. Briefly: LPS-stimulation of THP-1 cells, TNF-α levels by ELISA. It counts as cell-based. As to conditions: LPS 1 μg/ml, 6 hrs, read-out: C—ester TNF-alpha inhibition (THP-1 cells), IC50. Here is the method: THP-1 cells were plated in 100 μl at a density of 4×10^4 cells/well in V-bottomed 96 well tissue culture treated plates and incubated at 37° C. in 5% CO2 for 16 hrs. 2 hrs after the addition of the inhibitor in 100 μl of tissue culture media, the cells were stimulated with LPS (E coli strain 005:B5, Sigma) at a final concentration of 1 μg/ml and incubated at 37° C. in 5% CO2 for 6 hrs. TNF-α levels were measured from cell-free supernatants by sandwich ELISA (R&D Systems #QTA00B).
(ELISA stands for enzyme-linked immunosorbent assay.)

The subject of the next assay is human whole blood. Description: LPS-stimulation of human whole blood, TNF-α levels by ELISA. The settings on record: LPS 100 ng/ml, 6 hrs, read-out: D—ester TNF-alpha inhibition (human whole blood), IC50. It is filed as cell-based. The procedure:
Whole blood was taken by venous puncture using heparinised vacutainers (Becton Dickinson) and diluted in an equal volume of RPMI1640 tissue culture media (Sigma). 100 μl was plated in V-bottomed 96 well tissue culture treated plates. 2 hrs after the addition of the inhibitor in 100 μl of RPMI1640 media, the blood was stimulated with LPS (E coli strain 005:B5, Sigma) at a final concentration of 100 ng/ml and incubated at 37° C. in 5% CO2 for 6 hrs. TNF-α levels were measured from cell-free supernatants by sandwich ELISA (R&D Systems #QTA00B).

The target in a further assay is p38 MAP Kinase a (Homo sapiens (Human), UniProt Q16539). Description: p38 MAP kinase enzyme assay (radiometric filter-binding). It counts as biochemical. Here is the method: The ability of compounds to inhibit p38 MAP a Kinase activity was measured in an assay performed by Upstate (Dundee UK). In a final reaction volume of 25 μL, p38 MAP Kinase a (5-10 mU) is incubated with 25 mM Tris pH 7.5, 0.002 mMEGTA, 0.33 mg/mL myelin basic protein, 10 mM MgAcetate and [g-33p-ATP] (specific activity approx. 500 cpm/pmol, concentration as required). The reaction is initiated by the addition of the MgATP mix. After incubation for 40 minutes at room temperature, the reaction is stopped by the addition of 5 μL of a 3% phosphoric acid solution. 10 μL of the reaction is then spotted onto a P30 filtermat and washed three times for 5 minutes in 75 mM phosphoric acid and once in methanol prior to drying and scintillation counting.
Duplicate data points are generated from a 1/3 log dilution series of a stock solution in DMSO. Nine dilutions steps are made from a top concentration of 10 μM, and a ‘no compound’ blank is included. The standard radiometric filter-binding assay is performed at an ATP concentration at, or close to, the Km. Data from scintillation counts are collected and subjected to free-fit analysis by Prism software.

The mark [1] stands for this setting: ester tested, read-out: A—ester enzyme assay (p38 kinase A (invitrogen)), IC50.
Setting [2] is: corresponding acid (hydrolysis product of the named ester) tested, read-out: B—acid enzyme assay (p38 kinase A (invitrogen)), IC50.

p38 MAP Kinase a, sequence (Q16539 whole entry): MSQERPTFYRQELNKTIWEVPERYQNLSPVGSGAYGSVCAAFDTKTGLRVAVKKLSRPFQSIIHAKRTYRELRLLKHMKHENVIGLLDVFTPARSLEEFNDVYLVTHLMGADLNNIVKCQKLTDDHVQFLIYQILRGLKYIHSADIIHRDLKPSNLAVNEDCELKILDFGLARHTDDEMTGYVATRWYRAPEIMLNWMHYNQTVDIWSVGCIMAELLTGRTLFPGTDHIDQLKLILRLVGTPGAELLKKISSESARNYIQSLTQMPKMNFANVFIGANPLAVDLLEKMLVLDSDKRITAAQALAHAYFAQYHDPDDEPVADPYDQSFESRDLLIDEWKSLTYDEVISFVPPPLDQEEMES

`CC(C)C[C@H](NCCCOc1cc(F)c(-n2c(N)c(C(=O)c3ccc(F)cc3F)ccc2=O)c(F)c1)C(=O)OCCN1CCOCC1` [2-Morpholin-4-ylethyl N-(3-{4-[6-amino-5-(2,4-difluorobenzoyl)-2-oxopyridin-1(2H)-yl]-3,5-difluoro-phenoxy}propyl)-L-leucinate]: the IC50 in the assay with THP-1 cells (Homo sapiens, THP-1) came out at 0.0004 µM; in the assay with human whole blood (Homo sapiens), 0.935 µM.
`Nc1c(C(=O)c2ccc(F)cc2F)ccc(=O)n1-c1c(F)cc(CCN[C@@H](C(=O)OC2CCCC2)c2ccccc2)cc1F` [Cyclopentyl (2R)-[(2-{4-[6-amino-5-(2,4-difluoro-benzoyl)-2-oxopyridin-1(2H)-yl]-3,5-difluorophenyl}ethyl)amino] (phenyl)acetate]: the IC50 on p38 MAP Kinase a (setting [1]) stood at 0.047 µM; with THP-1 cells, 0.021 µM; in the assay with human whole blood it was 4.11 µM.
In the case of `Nc1c(C(=O)c2ccc(F)cc2F)ccc(=O)n1-c1c(F)cc(OCCCN[C@@H](C(=O)OC2CCCC2)c2ccccc2)cc1F` [Cyclopentyl (2R)-[(3-{4-[6-amino-5-(2,4-difluorobenzoyl)-2-oxopyridin-1(2H)-yl]-3,5-difluorophenoxy}propyl)amino] (phenyl)acetate], in the assay with THP-1 cells (Homo sapiens, THP-1), the IC50 worked out at 0.006 µM.
As for `NCC[C@H](NCCCOc1cc(F)c(-n2c(N)c(C(=O)c3ccc(F)cc3F)ccc2=O)c(F)c1)C(=O)OC1CCCC1` [Cyclopentyl (2S)-4-amino-2-[(3-{4-[6-amino-5-(2,4-difluoro-benzoyl)-2-oxopyridin-1(2H)-yl]-3,5-difluoro-phenoxy}propyl)amino]butanoate], the IC50 was 0.005 µM at p38 MAP Kinase a (setting [2]); 0.001 µM at p38 MAP Kinase a (setting [1]); 0.022 µM in the assay with THP-1 cells (Homo sapiens, THP-1); 0.479 µM in the assay with human whole blood (Homo sapiens).
Consider `Nc1c(C(=O)c2ccc(F)cc2F)ccc(=O)n1-c1c(F)cc(CCN[C@H](C(=O)OC2CCCC2)c2ccccc2)cc1F` [Cyclopentyl (2S)-[(2-{4-[6-amino-5-(2,4-difluorobenzoyl)-2-oxopyridin-1(2H)-yl]-3,5-difluorophenyl}ethyl)amino] (phenyl)acetate], for which the concentration for half-maximal inhibition (IC50) at p38 MAP Kinase a (setting [2]) came to 0.001 µM; at p38 MAP Kinase a (setting [1]), 0.065 µM; in the assay with THP-1 cells (Homo sapiens, THP-1), 0.0005 µM; in the assay with human whole blood (Homo sapiens), 0.148 µM.
For the molecule `CC(C)C[C@H](NCCCOc1cc(F)c(-n2c(N)c(C(=O)c3ccc(F)cc3F)ccc2=O)c(F)c1)C(=O)OC1CCCC1` [Cyclopentyl (S)-2-(3-{4-[6-Amino-5-(2,4-difluorobenzoyl)-2-oxo-2H-pyridin-1-yl]-3,5-difluoro-phenoxy}propyl-amino)-4-methyl pentanoate], the IC50 in the assay with THP-1 cells (Homo sapiens, THP-1) was 0.0107 µM; in the assay on human whole blood (Homo sapiens), 0.594 µM.
For the molecule `Nc1c(C(=O)c2ccc(F)cc2F)ccc(=O)n1-c1c(F)cc(OCCCN[C@H](C(=O)OC2CCCC2)c2ccccc2)cc1F` [Cyclopentyl (S)-(3-{4-[6-Amino-5-(2,4-difluorobenzoyl)-2-oxo-2H-pyridin-1-yl]-3,5-difluoro-phenoxy}propylamino) phenyl acetate], the IC50 in the assay with THP-1 cells (Homo sapiens, THP-1) was 0.0053 µM; in the assay on human whole blood (Homo sapiens) it was 0.508 µM.
For `Nc1c(C(=O)c2ccc(F)cc2)ccc(=O)n1-c1c(F)cc(OCCCN[C@H](C(=O)OC2CCCC2)c2ccccc2)cc1F` [Cyclopentyl (S)-(3-{4-[6-Amino-5-(4-fluorobenzoyl)-2-oxo-2H-pyridin-1-yl]-3,5-difluoro-phenoxy}propylamino) phenylacetate], in the assay on THP-1 cells (Homo sapiens, THP-1), the IC50 came to 0.038 µM.
With `CC(C)(C)OC[C@H](NCCc1cc(F)c(-n2c(N)c(C(=O)c3ccc(F)cc3F)ccc2=O)c(F)c1)C(=O)OC1CCCC1` [Cyclopentyl N-(2-{4-[6-amino-5-(2,4-difluoro-benzoyl)-2-oxopyridin-1(2H)-yl]-3,5-difluorophenyl}ethyl)-O-tert-butyl-L-serinate], the half-inhibitory concentration (IC50) came out at 0.001 µM at p38 MAP Kinase a (setting [2]); 0.057 µM at p38 MAP Kinase a (setting [1]); 0.0057 µM in the assay with THP-1 cells (Homo sapiens, THP-1); 1.29 µM in the assay on human whole blood (Homo sapiens).
Consider `CC(C)C[C@H](NCCc1cc(F)c(-n2c(N)c(C(=O)c3ccc(F)cc3)ccc2=O)c(F)c1)C(=O)OC1CCCC1` [Cyclopentyl N-(2-{4-[6-amino-5-(4-fluoro-benzoyl)-2-oxopyridin-1(2H)-yl]-3,5-difluorophenyl}ethyl)-L-leucinate], for which the IC50 turned out to be 0.001 µM at p38 MAP Kinase a (setting [2]); 0.012 µM on p38 MAP Kinase a (setting [1]); 0.0009 µM with THP-1 cells (Homo sapiens, THP-1); 0.19 µM in the assay with human whole blood (Homo sapiens).
The like results for `CC(C)C[C@H](NCCCCCOc1cc(F)c(-n2c(N)c(C(=O)c3ccc(F)cc3F)ccc2=O)c(F)c1)C(=O)OC1CCCC1` [Cyclopentyl N-(5-{4-[6-amino-5-(2,4-difluorobenzoyl)-2-oxopyridin-1(2H)-yl]-3,5 - difluorophenoxy}pentyl)-L-leucinate] were, in that order, 0.002 µM, 0.081 µM, 0.0042 µM and 0.179 µM.
With `CC(C)[C@H](NCCc1cc(F)c(-n2c(N)c(C(=O)c3ccc(F)cc3F)ccc2=O)c(F)c1)C(=O)OC1CCCC1` [Cyclopentyl N-[2-(4-{6-amino-5-[(2,4-difluoro-phenyl)carbonyl]-2-oxopyridin-1(2H)-yl}-3,5 difluorophenyl)ethyl]-L-valinate], the IC50 at p38 MAP Kinase a (setting [1]) was 0.022 µM; in the assay with THP-1 cells (Homo sapiens, THP-1), 0.0084 µM; in the assay on human whole blood (Homo sapiens), 5.18 µM.
`C[C@@H](O)[C@H](NCCc1ccc(-n2c(N)c(C(=O)c3ccc(F)cc3F)ccc2=O)cc1)C(=O)OC1CCCC1` [Cyclopentyl N-[2-(4-{6-amino-5-[(2,4-difluoro-phenyl)carbonyl]-2-oxopyridin-1(2H)-yl}phenyl)ethyl]-L-threoninate]: the IC50 on p38 MAP Kinase a (setting [2]) worked out at 0.056 µM; at p38 MAP Kinase a (setting [1]) it was 0.068 µM; in the assay with THP-1 cells (Homo sapiens, THP-1), 0.0018 µM; with human whole blood (Homo sapiens), 1.2 µM.
Regarding `CCOC(=O)[C@H](CC(C)C)NCCCOc1cc(F)c(-n2c(N)c(C(=O)c3ccc(F)cc3)ccc2=O)c(F)c1` [Ethyl N-(3-{4-[6-amino-5-(4-fluoro-benzoyl)-2-oxopyridin-1(2H)-yl]-3,5-difluorophenoxy}propyl)-L-leucinate], the IC50 came to 0.028 µM at p38 MAP Kinase a (setting [1]) and 0.0086 µM in the assay with THP-1 cells (Homo sapiens, THP-1).
Turning to `CC(C)C[C@H](NCCCOc1cc(F)c(-n2c(N)c(C(=O)c3ccc(F)cc3F)ccc2=O)c(F)c1)C(=O)OC(C)(C)C` [tert-Butyl (S)-2-(3-{4-[6-Amino-5-(2,4-difluorobenzoyl)-2-oxo-2H-pyridin-1-yl]-3,5-difluoro-phenoxy}propyl-amino)-4-methyl pentanoate], the IC50 in the assay with THP-1 cells (Homo sapiens, THP-1) worked out at 0.0761 µM; in the assay with human whole blood (Homo sapiens), 4.27 µM.
In the case of `CC(C)C[C@H](NCCCCCOc1cc(F)c(-n2c(N)c(C(=O)c3ccc(F)cc3F)ccc2=O)c(F)c1)C(=O)OC(C)(C)C` [tert-Butyl N-(5-{4-[6-amino-5-(2,4-difluoro-benzoyl)-2-oxopyridin-1(2H)-yl]-3,5-difluorophenoxy}pentyl)-L-leucinate], the IC50 on p38 MAP Kinase a (setting [2]) was determined as 0.002 µM; on p38 MAP Kinase a (setting [1]), 0.073 µM; with THP-1 cells (Homo sapiens, THP-1), 0.029 µM; in the assay on human whole blood (Homo sapiens), 1.25 µM.
The like results for `CC(C)C[C@H](NCCc1ccc(-n2c(N)c(C(=O)c3ccc(F)cc3F)ccc2=O)cc1)C(=O)OC(C)(C)C` [tert-Butyl N-[2-(4-{6-amino-5-[(2,4-difluoro-phenyl)carbonyl]-2-oxopyridin-1(2H)-yl}phenyl)ethyl]-L-leucinate] were, in that order, 0.058 µM, 0.33 µM, 0.0024 µM and 0.638 µM.
On to `CC(C)(C)OC(=O)[C@@H](NCCc1cc(F)c(-n2c(N)c(C(=O)c3ccc(F)cc3F)ccc2=O)c(F)c1)c1ccccc1` [tert-butyl (2S)-[(2-{4-[6-amino-5-(2,4-difluoro-benzoyl)-2-oxopyridin-1(2H)-yl]-3,5-difluorophenyl}ethyl)amino] (phenyl)acetate], for which the IC50 in the assay with THP-1 cells (Homo sapiens, THP-1) worked out at 0.002 µM; with human whole blood (Homo sapiens), 0.779 µM.
For the molecule `CC(C)(C)OC[C@H](NCCc1cc(F)c(-n2c(N)c(C(=O)c3ccc(F)cc3F)ccc2=O)c(F)c1)C(=O)OC(C)(C)C` [tert-butyl N-(2-{4-[6-amino-5-(2,4-difluoro-benzoyl)-2-oxopyridin-1(2H)-yl]-3,5-difluorophenyl}ethyl)-O-tert-butyl-L-serinate], the IC50 came out at 0.001 µM on p38 MAP Kinase a (setting [2]); 0.072 µM on p38 MAP Kinase a (setting [1]); 0.083 µM in the assay with THP-1 cells (Homo sapiens, THP-1).

As usually defined, the IC50 is the concentration needed to halve the response being measured.
